# Values quoted from earlier work in article PMC4629110 (Acta Pharmaceutica Sinica. B, 2014).
# Tested on: BuChE
# Conditions: read-out: IC50 BuChE reported in the literature
smiles,measurement,value
"CC(C)NP(=O)(NC(C)C)OP(=O)(NC(C)C)NC(C)C [ISO-OMPA, tetraisopropyl pyrophosphoramide]",IC50,980 nM
